Experimental data reported in patent US11241441B2, “Formulations of lixivaptan for the treatment of polycystic disease” (PALLADIO BIOSCIENCES, INC., priority 2017, dated 2022).

Tests used:
[1] = In-clinic pharmacokinetic study: plasma pharmacokinetics and dose proportionality; assay type: in vivo, human; settings: 100 mg to 400 mg administered as 2 divided doses
Method: The primary objective of this study was to assess the pharmacokinetics and dose proportionality of lixivaptan over the dose range targeted for clinical use (e.g., 100 to 400 mg daily) using unit doses of 50 mg and multiples thereof given twice daily for 7.5 days.
Subjects received lixivaptan at total daily doses of 100 mg, 200 mg, or 400 mg (administered as 50, 100, and 200 mg Q12H). Subjects were to be enrolled into the study in two cohorts of 30 subjects, but actual cohort numbers were 23 and 34 subjects. Of the 57 subjects enrolled in the study, 27 were female (47.4%) and 30 were male (52.6%). The majority of subjects were White (35/57, 61.4%) and of Hispanic or Latino ethnicity (46/57, 80.7%). The overall mean age of subjects in the study was 33.6 (8.31) years, and the overall mean body mass index for subjects was 26.2 (3.79). There were to be approximately 20 subjects enrolled per dose level. An approximately equal number of males and females were enrolled at each dose level such that neither gender was represented by fewer than 8 subjects. The starting date for each cohort subjects was staggered by 7 days for logistical purposes. Screening evaluations were performed within 28 days prior to Day 1. […]

PCK rats = assay: In vivo study of the effects of lixivaptan on PCK rats; parameters: species or system rat; settings: for % kidney weight/body weight: both genders
Method: A study was performed that examined the effect of lixivaptan (0.5% or 1% w/w lixivaptan in ground rodent chow) on bodyweight, kidney weight, kidney cAMP, urine output, and serum electrolyte concentration in PCK rats, an orthologous animal model of Autosomal Recessive PKD that develops a phenotype reminiscent of ADPKD.
Experimental animals and study design. PCK rats were divided into control and treatment groups at four weeks of age (n=59, ˜10 animals per treatment group and gender). Lixivaptan was dissolved in DMSO and added to ground rodent chow (Regrind Labdiet 5053) at 0.5% or 1.0% concentration (w/w) by homogenous mixing, whereas control animals received the same diet without lixivaptan. Animals were exposed to control- or lixivaptan-diet for eight weeks and were sacrificed at twelve weeks of age.
Experimental Protocol. […] At the end of the dosing period, the animals were weighed and anesthetized with ketamine 90 mg/kg and xylazine 10 mg/kg, IP. Blood samples were obtained by cardiac puncture for determination of plasma electrolytes, creatinine and plasma urea levels. The right kidney and part of the liver were placed into pre-weighed vials containing 10% formaldehyde in phosphate buffer (pH 7.4). The tissues were embedded in paraffin for histological studies. The left kidneys were immediately frozen in liquid nitrogen for determination of cAMP.
Statistical Analysis. Comparisons between groups were analyzed using one-way or two-way analysis of variance (ANOVA) with least significant difference comparisons of the means or student's t-test as appropriate. Data were expressed as means±SD.

[2] = PCK rats, 0.5% lixivaptan, compared to control
[3] = PCK rats, 0.5% lixivaptan, compared to control, p=0.08

Cc1ccc(F)cc1C(=O)Nc1ccc(C(=O)N2Cc3cccn3Cc3ccccc32)c(Cl)c1 [Lixivaptan, 5-fluoro-2-methyl-N-[4-(5H-pyrrolo[2,1-C] [1,4]benzodiazepin-10(11H)-ylcarbonyl)-3-chlorophenyl]benzamide]
dose proportionality of pharmacokinetic parameters (Cmax, AUC(0-12)) [1]: proportional kinetics | 24 hr urine week 7 (PCK rats; PCK rats F, 0.5% Lixivaptan): 33.5 ± 8.6 mL | 24 hr urine week 10 (PCK rats; PCK rats F, 0.5% Lixivaptan): 47.7 ± 16.8 mL | % Kidney/Body Weight (PCK rats; PCK rats F, 0.5% Lixivaptan): 1.11 ± 0.10 % | % Liver/Body Weight (PCK rats; PCK rats F, 0.5% Lixivaptan): 5.72 ± 0.42% | Kidney Cyst Score (PCK rats; PCK rats F, 0.5% Lixivaptan): 7.1 ± 4.2 % | Kidney Fibrosis Score (PCK rats; PCK rats F, 0.5% Lixivaptan): 2.0 ± 1.1% | Liver Cyst Score (PCK rats; PCK rats F, 0.5% Lixivaptan): 3.7 ± 0.8% | Liver Fibrois Score (PCK rats; PCK rats F, 0.5% Lixivaptan): 2.7 ± 0.3% | Liver Weight (PCK rats; PCK rats F, 0.5% Lixivaptan): 14.5 ± 1.6 g | Plasma Creatinine (PCK rats; PCK rats F, 0.5% Lixivaptan): 0.64 ± 0.08 mg/dL | Plasma Sodium (PCK rats; PCK rats F, 0.5% Lixivaptan): 145 ± 2 mEq/L | Plasma Urea (PCK rats; PCK rats F, 0.5% Lixivaptan): 32.3 ± 3.9 mg/dL | Total Kidney Weight (PCK rats; PCK rats F, 0.5% Lixivaptan): 2.82 ± 0.33 g | 24 hr urine week 7 (PCK rats; PCK rats F, 1.0% Lixivaptan): 39.7 ± 14.2 mL | 24 hr urine week 10 (PCK rats; PCK rats F, 1.0% Lixivaptan): 54.8 ± 19.3 mL | % Kidney/Body Weight (PCK rats; PCK rats F, 1.0% Lixivaptan): 1.75 ± 0.99% | % Liver/Body Weight (PCK rats; PCK rats F, 1.0% Lixivaptan): 7.11 ± 2.61% | Kidney Cyst Score (PCK rats; PCK rats F, 1.0% Lixivaptan): 11.9 ± 3.1% | Kidney Fibrosis Score (PCK rats; PCK rats F, 1.0% Lixivaptan): 2.1 ± 0.8% | Liver Cyst Score (PCK rats; PCK rats F, 1.0% Lixivaptan): 6.2 ± 2.7% | Liver Fibrois Score (PCK rats; PCK rats F, 1.0% Lixivaptan): 4.1 ± 1.4% | Liver Weight (PCK rats; PCK rats F, 1.0% Lixivaptan): 16.8 ± 6.7 g | Plasma Creatinine (PCK rats; PCK rats F, 1.0% Lixivaptan): 0.68 ± 0.06 mg/dL | Plasma Sodium (PCK rats; PCK rats F, 1.0% Lixivaptan): 143 ± 3 mEq/L | Plasma Urea (PCK rats; PCK rats F, 1.0% Lixivaptan): 37.7 ± 10.5 mg/dL | Total Kidney Weight (PCK rats; PCK rats F, 1.0% Lixivaptan): 4.14 ± 2.46 g | 24 hr urine week 7 (PCK rats; PCK rats M, 0.5% Lixivaptan): 45.5 ± 9.1 mL | 24 hr urine week 10 (PCK rats; PCK rats M, 0.5% Lixivaptan): 53.5 ± 14.3 mL | % Kidney/Body Weight (PCK rats; PCK rats M, 0.5% Lixivaptan): 1.37 ± 0.45% | % Liver/Body Weight (PCK rats; PCK rats M, 0.5% Lixivaptan): 5.49 ± 0.44% | Kidney Cyst Score (PCK rats; PCK rats M, 0.5% Lixivaptan): 7.7 ± 1.7 % | Kidney Fibrosis Score (PCK rats; PCK rats M, 0.5% Lixivaptan): 1.8 ± 1.2% | Liver Cyst Score (PCK rats; PCK rats M, 0.5% Lixivaptan): 3.2 ± 1.6% | Liver Fibrois Score (PCK rats; PCK rats M, 0.5% Lixivaptan): 3.1 ± 1.1% | Liver Weight (PCK rats; PCK rats M, 0.5% Lixivaptan): 23.8 ± 2.3 g | Plasma Creatinine (PCK rats; PCK rats M, 0.5% Lixivaptan): 0.63 ± 0.07 mg/dL | Plasma Sodium (PCK rats; PCK rats M, 0.5% Lixivaptan): 147 ± 4 mEq/L | Plasma Urea (PCK rats; PCK rats M, 0.5% Lixivaptan): 32.2 ± 5.8 mg/dL | Total Kidney Weight (PCK rats; PCK rats M, 0.5% Lixivaptan): 5.97 ± 2.04 g | 24 hr urine week 7 (PCK rats; PCK rats M, 1.0% Lixivaptan): 53.9 ± 7.4 mL | 24 hr urine week 10 (PCK rats; PCK rats M, 1.0% Lixivaptan): 63.7 ± 10.1 mL | % Kidney/Body Weight (PCK rats; PCK rats M, 1.0% Lixivaptan): 1.47 ± 0.46% | % Liver/Body Weight (PCK rats; PCK rats M, 1.0% Lixivaptan): 5.60 ± 0.61% | Kidney Cyst Score (PCK rats; PCK rats M, 1.0% Lixivaptan): 12.0 ± 3.7 % | Kidney Fibrosis Score (PCK rats; PCK rats M, 1.0% Lixivaptan): 2.9 ± 1.3% | Liver Cyst Score (PCK rats; PCK rats M, 1.0% Lixivaptan): 5.8 ± 1.3% | Liver Fibrois Score (PCK rats; PCK rats M, 1.0% Lixivaptan): 4.2 ± 2.0% | Liver Weight (PCK rats; PCK rats M, 1.0% Lixivaptan): 22.5 ± 2.7 g | Plasma Creatinine (PCK rats; PCK rats M, 1.0% Lixivaptan): 0.67 ± 0.04 mg/dL | Plasma Sodium (PCK rats; PCK rats M, 1.0% Lixivaptan): 147 ± 1 mEq/L | Plasma Urea (PCK rats; PCK rats M, 1.0% Lixivaptan): 32.3 ± 5.0 mg/dL | Total Kidney Weight (PCK rats; PCK rats M, 1.0% Lixivaptan): 5.92 ± 1.95 g | improvement in cystic phenotype compared to control (PCK rats; PCK rats, 0.5% lixivaptan): 54% | increase in serum sodium (PCK rats; PCK rats, 0.5% lixivaptan): 1.6% | reduction in kidney weight as a percentage of body weight (relative kidney size) (PCK rats; [2]): 26% | reduction in liver cyst score (PCK rats; [2]): 39% | reduction in liver fibrosis score (PCK rats; [3]): 20.6% | reduction in ratio of liver weight vs. body weight (PCK rats; [3]): 5.2% | beneficial effect on kidney fibrosis score (PCK rats; PCK rats, 0.5% lixivaptan, p=0.12): 30% | increase in 24 h urine output (PCK rats; PCK rats, 0.5% lixivaptan, study week 3 (rats at 7 weeks of age)): 175% | increase in 24 h urine output (PCK rats; PCK rats, 0.5% lixivaptan, study week 6 (rats at 10 weeks of age)): 189% | effect on liver pathology (PCK rats; PCK rats, 1.0% lixivaptan): did not separate from control | improvement in cystic phenotype compared to control (PCK rats; PCK rats, 1.0% lixivaptan): 25% | increase in urine output (PCK rats; PCK rats, 1.0% lixivaptan, Study week 3): 223% | increase in urine output (PCK rats; PCK rats, 1.0% lixivaptan, Study week 6): 237% | % kidney weight/body weight (PCK rats; PCK rats, 0.5% lixivaptan): 1.2% | % kidney weight/body weight (PCK rats; PCK rats, 1.0% lixivaptan, all animals): 1.6% | % kidney weight/body weight (PCK rats; PCK rats, 1.0% lixivaptan, three outliers removed): 1.3% | reduction in serum creatinine (PCK rats; PCK rats, compared to control): 13.2%
